Assays:
FaDu cells [1] = test: Uptake of boron compounds in FaDu cells in vitro (Example 7); format: cell-based; conditions: 2.5 mM in HBSS, two (2) hrs; for uptake (boron) in FaDu cells: 37° C., boron by ICP-OES, FaDu compared with U343MG
Method: (§1) In this experiment, the uptake of BPA, FBH FBF, and LBH was carried out to determine which compounds show greater uptake FaDu and U343MG cells. The following protocols were used. Briefly, two (2) assays were performed, one using FaDu cells and the other using U343MG cells. FaDu and U343MG cells were harvested and washed with PBS twice. The count was adjusted to 2 million/ml in HBSS. Boron compounds were added to cells at the final concentration of 2.5 mM in HBSS and the cells were incubated at 37° C., in a humidified 5% CO2 atmosphere for two (2) hrs. with shaking. Following a two (2) hour incubation, cells were harvested and washed twice with ice cold PBS. Cells were then suspended in 1 ml ice cold PBS and a portion (50 μl) was lysed in RIPA buffer and protein content determined by BCA assay. The remaining portion (950 μl) was subjected to nitric acid lysis (66.7% acid at 80° C.). Boron measurements were carried out using ICP-OES. Boronophenylalanine (as fructose solution) was used as a control.

U343MG cells = test: Uptake of boron compounds in U343MG cells in vitro (Example 7); format: cell-based; conditions: 2.5 mM in HBSS, two (2) hrs; for uptake (boron) in U343MG cells: 37° C., boron by ICP-OES
Method: as §1

FaDu cells [2] = test: Uptake of boron compounds in FaDu cells in vitro (Example 6); format: cell-based; conditions: 2.5 mM in HBSS, 37° C., two (2) hrs, boron by ICP-OES; compared with BPA (fructose solution)
Method: as §1, with “The” for “In this experiment, the uptake of BPA, FBH FBF, and LBH was carried out to determine which compounds show greater uptake FaDu and U343MG cells. The”, “Briefly,” for “Briefly, two (2) assays were performed, one using”, “FaDu” for “FaDu cells and the other using U343MG cells. FaDu and U343MG”

intracranial tumor = conditions: BNCT, beam directed to surgically exposed intracranial tumor, Japan 1968; cited from earlier work

Compound	uptake (boron) in FaDu cells (FaDu cells [1])	uptake (boron) in U343MG cells (U343MG cells)	uptake relative to the other compounds, FaDu cells (FaDu cells [1]; versus BPA, FBH, LBH)	uptake relative to the other compounds, U343MG cells (U343MG cells; versus BPA, FBH, LBH)	uptake (boron) in FaDu cells (FaDu cells [2])	5-year survival rate (intracranial tumor) [%]
N[C@@H](Cc1ccc(B(O)O)cc1)C(=O)O [BPA, 4-Borono-L-phenylalanine, reference compound]	slightly lower uptake	sufficient level uptake				
N[C@@H](Cc1ccccc1)[B-](F)(F)F.[K+] [FBF, [(1R)-1-amino-2-phenylethyl]trifluoroboranuide]	slightly lower uptake	sufficient level uptake	marginally greater uptake than the other compounds	marginally greater uptake than the other compounds		
N[C@@H](Cc1ccccc1)B(O)O [FBH, L-phenylalanine boronic acid]	slightly lower uptake	sufficient level uptake				
CC(C)C[C@H](N)B(O)O [LBH, L-leucine boronic acid]	slightly lower uptake	sufficient level uptake			lower	
un-decahydrododecaborane thiol [BSH]						58
